Results from ChEMBL document CHEMBL3352797, “Design of granulatimide and isogranulatimide analogues as potential Chk1 inhibitors: Study of amino-platforms for their synthesis” (Bioorg Med Chem, 2014).

Target: T1, Serine/threonine-protein kinase Chk1 (Homo sapiens, UniProt O14757)
T1 sequence (O14757 whole entry): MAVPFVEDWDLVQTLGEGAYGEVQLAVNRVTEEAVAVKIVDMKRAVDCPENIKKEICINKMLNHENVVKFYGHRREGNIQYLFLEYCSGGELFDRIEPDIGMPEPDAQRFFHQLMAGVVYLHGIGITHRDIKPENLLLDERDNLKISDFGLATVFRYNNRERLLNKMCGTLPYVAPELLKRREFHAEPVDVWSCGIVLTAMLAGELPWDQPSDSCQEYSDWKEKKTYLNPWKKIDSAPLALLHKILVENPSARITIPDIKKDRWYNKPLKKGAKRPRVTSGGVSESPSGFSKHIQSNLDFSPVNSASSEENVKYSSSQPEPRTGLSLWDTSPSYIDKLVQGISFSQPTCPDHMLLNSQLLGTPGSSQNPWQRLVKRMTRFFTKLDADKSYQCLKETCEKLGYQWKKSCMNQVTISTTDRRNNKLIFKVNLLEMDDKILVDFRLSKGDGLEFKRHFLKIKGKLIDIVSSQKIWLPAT
Experiment: Inhibition of Chk1 (unknown origin)

IC50: 250 nM
Structure (SMILES): O=C1NC(=O)c2c1c1[nH]cnc1c1[nH]c3ccccc3c21 [GRANULATIMIDE]
